According to PMC11003925, “Antimicrobial activity and properties of de novo design of short synthetic lipopeptides” (Folia Microbiologica, 2024):
≈ marks a conversion by molar mass, not a printed value. Residues, ends and D or L forms follow the SMILES beside them. *: point of attachment. Palmitoyl = CCCCCCCCCCCCCCCC(=O)*

Columns and labels:
E. faecalis DBM 3075 = type: cell-based
Procedure: (§1) A Bioscreen C automated microbiology growth curve analysis system (Growth Curves, Piscataway, NJ, USA) was used for the quantitative determination of antimicrobial activity (minimal inhibitory concentration, MIC) of PAL/LCA-peptides. Optical density was measured with a wide bandpass filter (wavelength range 420–580 nm) at regular intervals and temperatures. This assay was performed in a special microtiter plate (10 × 10 wells) that allowed the simultaneous testing of a large number of samples against several microorganisms. The total testing volume was 100 µL, obtained by mixing 10 µL of microbial culture with OD600 equal to 0.1 with growth medium and a solution of the tested compounds. The positive controls were vancomycin and tetracycline for Bacillus subtilis (100 µg/mL) for Gram-positive bacteria, kanamycin, and tetracycline for Acinetobacter baumannii (100 µg/mL) for Gram-negative bacteria, and clotrimazole or amphotericin (100 µg/mL) for fungi. The maximal concentration of tested lipoproteins was 1 mg/mL. A pure growth medium was used as the negative control. The measurement period was 25 h. The lowest concentration with a 100% inhibition effect for 24 h of incubation was chosen as the MIC. The antibacterial activity of each compound was expressed as the minimum inhibitory concentration MIC (MIC is the lowest concentration of the compound needed to inhibit the growth of bacterial cells) and IC50 (IC50 is the concentration of the compound needed to inhibit the growth of bacterial cells by 50%).

E. coli DBM 3001 = type: cell-based
Procedure: as §1

Ps. aeruginosa DBM 3081 = type: cell-based, Pseudomonas aeruginosa; conditions: 25 h
Procedure: as §1

HepG2 = test: Cytotoxicity assay (xCELLigence impedance); type: cell-based, human; conditions: 24 h exposure
Procedure: (§2) Experiments were carried out using an xCELLigence RTCA DP Instrument (Roche Diagnostics GmbH, Mannheim, Germany) which was placed into an incubator (37 °C and 5% CO2). Cell proliferation and cytotoxicity experiments were performed using modified 16-well plates (E-plate, Roche Diagnostics GmbH, Mannheim, Germany). Microelectrodes were attached to the bottom of the wells for the impedance-based detection of attachment, spreading, and proliferation of the cells (Stoddart [2011]). This system monitors cellular events in real time without the incorporation of labels by measuring electrical impedance across an interdigitated microelectrode integrated into the bottom of this special tissue culture plate. This impedance measurement improves upon conventional endpoint assays and provides quantitative information about the biological status of the cells, including cell number, adhesion, viability, and morphology. Ninety microliters of cultivation medium was used for the blank sample, and subsequently, 100 µL of HepG2 or HEK293T cell suspension (7 × 10^5 cells/mL) was added and placed into the incubator (37 °C, 95% humidity, 5% CO2). […] Chrysophsin-3 at a concentration of 100 µg/mL was used as a positive control and solvent (deionized water) as a negative control. Subsequent incubation was performed for at least an additional 24 h. The result of the measurement was viability curves. After the measurement, percentages of tissue culture growth inhibition were calculated for all the tested substances, as follows: %inhibition=(1-(ΔϕCIsample)/(ΔϕCIcontrol))·100
(§3) Δ∅CIsample … the difference between the first and last average CI (cell index) values of the tissue culture in the presence of the tested sample.
(§4) Δ∅CIcontrol … the difference between the first and last average CI values of the tissue culture itself.

HEK293T = test: Cytotoxicity assay (xCELLigence impedance); type: cell-based, human; conditions: 24 h exposure
Procedure: as §2, §3, §4

M. luteus DBM 3053 = type: cell-based, Micrococcus luteus
Procedure: as §1

CCCCCCCCCCCCCCCC(=O)N[C@@H](CC(C)C)C(=O)N[C@H](C(=O)N[C@@H](CCCCN)C(=O)N[C@@H](CCCNC(=N)N)C(=O)N[C@@H](C)C(=O)NCC(N)=O)C(C)C [SHP-1.2, PAL-LVKRAG-NH2] (Palmitoyl-LVKRAG-NH2)
MIC (E. faecalis DBM 3075; DBM 3075, 24 h): 32.6 µg/mL (≈ 37 µM)
IC50 (E. faecalis DBM 3075; DBM 3075, 25 h): 40 µg/mL (≈ 45.4 µM)
MIC (E. coli DBM 3001; DBM 3001, 24 h): 78.9 µg/mL (≈ 89.6 µM)
IC50 (E. coli DBM 3001; DBM 3001, 25 h): 100.0 µg/mL (≈ 114 µM)
IC50 (Ps. aeruginosa DBM 3081): 60.0 µg/mL (≈ 68.2 µM)
% inhibition (HepG2; c 50 µg/mL): 4.1 ± 0.6%
% inhibition (HepG2; c 100 µg/mL): 42.2 ± 6.3%
% inhibition (HepG2; c 200 µg/mL): 67.9 ± 10.2%
% inhibition (HEK293T; c 50 µg/mL): 37.6 ± 5.6%
% inhibition (HEK293T; c 100 µg/mL): 77.8 ± 11.7%
% inhibition (HEK293T; c 200 µg/mL): 73.1 ± 11.0%
MIC (M. luteus DBM 3053; DBM 3053, 24 h): 6.4 µg/mL (≈ 7.27 µM)
IC50 (M. luteus DBM 3053; DBM 3053, 25 h): 10.0 µg/mL (≈ 11.4 µM)
